Source: patent publication US20230265151A1, “GIP/GLP1 CO-AGONIST COMPOUNDS” (priority 2020, published 2023)
Like-named read-outs stand apart in the source and are kept apart here. *1 amine or outer side, *2 acyl side, *3 side chain or, on linkers, in order; H or OH if unused. Where a SMILES comes first, the peptide text is derived from it. Side-chain parts run from the residue outwards. [ ]: non-standard residue; d: D form. The star is where a group is joined. Decanoyl(10-(4-HOOC-PhO)) = O=C(O)c1ccc(OCCCCCCCCCC(=O)*)cc1; αMePhe(2-F) = C[C@](N)(Cc1ccccc1F)C(=O)O; γGlu = O=C(O)[C@H](CCC(=O)[*:2])N[*:1]; αMeY = C[C@](N)(Cc1ccc(O)cc1)C(=O)O; αMeL = CC(C)C[C@](C)(N)C(=O)O; Orn = NCCC[C@H](N)C(=O)O; AEEA = NCCOCCOCC(=O)O; Aib = CC(C)(N)C(=O)O

Assays:
Format in all cases: cell-based
hGLP-1R = hGLP-1R (Homo sapiens, UniProt P43220); test: Functional cAMP formation (HTRF) in HEK-293 clonal cells expressing hGLP-1R, 0.1% bovine casein, without or with 1.0% human serum albumin; design: expressed in transfected cells; settings: for EC50: hGLP-1R EC50, nM (SEM, n), cAMP, 37° C.; for Emax: percent of maximal response to GLP-1(7-36)NH2
hGLP-1R, sequence (P43220 24-463): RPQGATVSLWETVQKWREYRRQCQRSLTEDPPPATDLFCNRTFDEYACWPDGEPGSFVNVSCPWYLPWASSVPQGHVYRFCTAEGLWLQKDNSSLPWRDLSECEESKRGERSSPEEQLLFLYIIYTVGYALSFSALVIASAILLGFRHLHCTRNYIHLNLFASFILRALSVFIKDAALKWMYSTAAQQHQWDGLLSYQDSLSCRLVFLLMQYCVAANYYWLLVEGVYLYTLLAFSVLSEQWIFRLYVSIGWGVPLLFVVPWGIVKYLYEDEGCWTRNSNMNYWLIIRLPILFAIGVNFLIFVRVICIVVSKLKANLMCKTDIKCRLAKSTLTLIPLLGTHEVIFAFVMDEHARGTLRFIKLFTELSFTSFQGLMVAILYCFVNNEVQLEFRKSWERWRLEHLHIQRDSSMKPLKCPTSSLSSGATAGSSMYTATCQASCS
Summary of the method: (§1)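 Cells were stimulated with peptide for 30 min at 37° C, then lysed in buffer carrying cAMP-d2 and anti-cAMP Eu3+-cryptate for a competitive HTRF read after at least 60 min at room temperature. The 665/620 nm ratio was converted to nM cAMP against a standard curve.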

hGIPR = biological target: T1, hGIPR (Homo sapiens, UniProt P48546); test: Functional cAMP formation (HTRF) in HEK-293 clonal cells expressing hGIPR, 0.1% bovine casein, without or with 1.0% human serum albumin; settings: for Emax: percent of maximal response to GIP(1-42)NH2; for EC50: hGIPR EC50, nM (SEM, n), cAMP, 37° C.
T1 construct: expressed in transfected cells
T1 sequence (P48546 22-466): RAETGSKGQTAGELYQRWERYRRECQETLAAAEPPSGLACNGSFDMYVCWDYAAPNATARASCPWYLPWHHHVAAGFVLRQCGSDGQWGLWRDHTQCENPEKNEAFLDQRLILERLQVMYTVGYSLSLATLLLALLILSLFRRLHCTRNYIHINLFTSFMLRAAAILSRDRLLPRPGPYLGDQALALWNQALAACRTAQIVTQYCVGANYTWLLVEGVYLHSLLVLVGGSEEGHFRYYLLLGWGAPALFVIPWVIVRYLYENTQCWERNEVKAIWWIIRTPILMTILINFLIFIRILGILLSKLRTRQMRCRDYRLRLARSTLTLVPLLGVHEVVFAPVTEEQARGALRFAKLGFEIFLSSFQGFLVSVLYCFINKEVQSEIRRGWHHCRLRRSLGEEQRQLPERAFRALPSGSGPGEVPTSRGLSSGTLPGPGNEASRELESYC
Summary of the method: as §1

hGCGR = biological target: T2, hGCGR (Homo sapiens, UniProt P47871); test: Functional cAMP formation (HTRF) in HEK-293 clonal cells expressing hGCGR, 0.1% bovine casein, without or with 1.0% human serum albumin; settings: hGCGR EC50, nM (SEM, n), cAMP, 37° C.
T2 construct: expressed in transfected cells
T2 sequence (P47871 26-477): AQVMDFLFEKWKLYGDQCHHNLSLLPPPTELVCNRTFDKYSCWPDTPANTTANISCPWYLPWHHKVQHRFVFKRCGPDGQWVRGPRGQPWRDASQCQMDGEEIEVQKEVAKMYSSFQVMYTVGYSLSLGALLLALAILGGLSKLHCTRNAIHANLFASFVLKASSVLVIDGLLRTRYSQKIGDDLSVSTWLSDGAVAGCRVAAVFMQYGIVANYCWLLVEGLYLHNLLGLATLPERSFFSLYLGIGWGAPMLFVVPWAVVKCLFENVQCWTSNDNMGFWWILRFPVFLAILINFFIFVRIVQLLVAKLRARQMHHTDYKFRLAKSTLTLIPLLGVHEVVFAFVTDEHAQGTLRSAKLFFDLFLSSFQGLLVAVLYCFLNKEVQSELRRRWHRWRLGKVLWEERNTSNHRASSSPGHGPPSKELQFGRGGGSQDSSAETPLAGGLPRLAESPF
Summary of the method: as §1

[1] = 0.1% bovine casein (no human serum albumin), geometric mean
[2] = HEK293, read-out: hGIPR Emax, % ± SEM, cAMP, 37° C., 0.1% bovine casein and 1.0% human serum albumin
[3] = HEK293, read-out: hGIPR Emax, % ± SEM, cAMP, 37° C., 0.1% bovine casein, arithmetic mean
[4] = 0.1% bovine casein and 1.0% human serum albumin, geometric mean (SEM, n)
[5] = HEK293, read-out: hGLP-1R Emax, % ± SEM, cAMP, 37° C., 0.1% bovine casein and 1.0% human serum albumin
[6] = HEK293, read-out: hGLP-1R Emax, % ± SEM, cAMP, 37° C., 0.1% bovine casein, arithmetic mean

| SMILES | EC50 (hGLP-1R; [1]) | Emax (hGIPR; [2]) | Emax (hGIPR; [3]) | EC50 (hGIPR; [1]) | EC50 (hGIPR; [4]) | EC50 (hGCGR; [1]) | EC50 (hGCGR; [4]) | Emax (hGLP-1R; [5]) | Emax (hGLP-1R; [6]) | EC50 (hGLP-1R; [4]) |
| --- | --- | --- | --- | --- | --- | --- | --- | --- | --- | --- |
| CC[C@H](C)[C@H](NC(=O)[C@H](CC(C)C)NC(=O)[C@](C)(Cc1ccc(O)cc1)NC(=O)[C@@H](CCC(=O)O)NC(=O)[C@@H](NC(=O)[C@H](Cc1ccccc1)NC(=O)[C@H](CCC(=O)O)NC(=O)C(C)(C)NC(=O)[C@H](CCC(N)=O)NC(=O)[C@H](C)NC(=O)[C@H](CCCCNC(=O)COCCOCCNC(=O)CC[C@H](NC(=O)CCCCCCCCCOc1ccc(C(=O)O)cc1)C(=O)O)NC(=O)[C@H](CCCN)NC(=O)[C@H](CC(=O)O)NC(=O)[C@H](CC(C)C)NC(=O)[C@](C)(CC(C)C)NC(=O)[C@@H](NC(=O)C(C)(C)NC(=O)[C@@H](NC(=O)[C@H](CC(=O)O)NC(=O)[C@H](CO)NC(=O)[C@@H](NC(=O)[C@](C)(Cc1ccccc1F)NC(=O)[C@@H](NC(=O)CNC(=O)[C@H](CCC(=O)O)NC(=O)C(C)(C)NC(=O)[C@@H](N)Cc1ccc(O)cc1)[C@@H](C)O)[C@@H](C)O)C(C)C)[C@@H](C)CC)[C@@H](C)CC)C(=O)N[C@@H](CCCCNC(=O)COCCOCCNC(=O)CC[C@H](NC(=O)CCCCCCCCCOc1ccc(C(=O)O)cc1)C(=O)O)C(=O)NCC(=O)NCC(=O)N1CCC[C@H]1C(=O)N[C@@H](CO)C(=O)N[C@@H](CO)C(=O)NCC(=O)N[C@@H](C)C(=O)N1CCC[C@H]1C(=O)N1CCC[C@H]1C(=O)N1CCC[C@H]1C(=O)N[C@@H](CO)C(N)=O [Example 379] | 0.171 nM | 90% | 97.5% | 0.0167 nM | 11.6 nM | > 9950 nM | > 9950 nM |  |  |  |
| CC[C@H](C)[C@H](NC(=O)[C@H](CC(C)C)NC(=O)[C@](C)(Cc1ccc(O)cc1)NC(=O)[C@@H](CCC(=O)O)NC(=O)[C@@H](NC(=O)[C@H](Cc1ccccc1)NC(=O)[C@H](CCC(=O)O)NC(=O)C(C)(C)NC(=O)[C@H](CCC(N)=O)NC(=O)[C@H](C)NC(=O)[C@H](CCCCNC(=O)COCCOCCNC(=O)COCCOCCNC(=O)CC[C@H](NC(=O)CCCCCCCCCOc1ccc(C(=O)O)cc1)C(=O)O)NC(=O)[C@H](CCCN)NC(=O)[C@H](CC(=O)O)NC(=O)[C@H](CC(C)C)NC(=O)[C@](C)(CC(C)C)NC(=O)[C@@H](NC(=O)C(C)(C)NC(=O)[C@@H](NC(=O)[C@H](CC(=O)O)NC(=O)[C@H](CO)NC(=O)[C@@H](NC(=O)[C@](C)(Cc1ccccc1F)NC(=O)[C@@H](NC(=O)CNC(=O)[C@H](CCC(=O)O)NC(=O)C(C)(C)NC(=O)[C@@H](N)Cc1ccc(O)cc1)[C@@H](C)O)[C@@H](C)O)C(C)C)[C@@H](C)CC)[C@@H](C)CC)C(=O)N[C@@H](CCC(=O)O)C(=O)NCC(=O)NCC(=O)N1CCC[C@H]1C(=O)N[C@@H](CO)C(=O)N[C@@H](CO)C(=O)NCC(=O)N[C@@H](C)C(=O)N1CCC[C@H]1C(=O)N1CCC[C@H]1C(=O)N1CCC[C@H]1C(=O)N[C@@H](CO)C(=O)N[C@@H](CCCCNC(=O)COCCOCCNC(=O)COCCOCCNC(=O)CC[C@H](NC(=O)CCCCCCCCCOc1ccc(C(=O)O)cc1)C(=O)O)C(N)=O [Example 380] (H-Y[Aib]EGT[αMePhe(2-F)]TSDV[Aib]I[αMeL]LD[Orn]K([AEEA-AEEA-γGlu-Decanoyl(10-(4-HOOC-PhO))])AQ[Aib]EFI[dE][αMeY]LIEGGPSSGAPPPSK([AEEA-AEEA-γGlu-Decanoyl(10-(4-HOOC-PhO))])-NH2) | 0.176 nM | 93.5% | 100% | 0.0209 nM |  | > 9950 nM | > 9950 nM | 94.5% | 96.2% | 28 nM |
| CC[C@H](C)[C@H](NC(=O)[C@H](CCCN)NC(=O)[C@H](CC(=O)O)NC(=O)[C@H](CC(C)C)NC(=O)[C@](C)(CC(C)C)NC(=O)[C@@H](NC(=O)C(C)(C)NC(=O)[C@@H](NC(=O)[C@H](CC(=O)O)NC(=O)[C@H](CO)NC(=O)[C@@H](NC(=O)[C@](C)(Cc1ccccc1F)NC(=O)[C@@H](NC(=O)CNC(=O)[C@H](CCC(=O)O)NC(=O)C(C)(C)NC(=O)[C@@H](N)Cc1ccc(O)cc1)[C@@H](C)O)[C@@H](C)O)C(C)C)[C@@H](C)CC)C(=O)N[C@@H](C)C(=O)N[C@@H](CCC(N)=O)C(=O)NC(C)(C)C(=O)N[C@@H](CCC(=O)O)C(=O)N[C@@H](Cc1ccccc1)C(=O)N[C@H](C(=O)N[C@@H](CCCCNC(=O)COCCOCCNC(=O)CC[C@H](NC(=O)CCCCCCCCCOc1ccc(C(=O)O)cc1)C(=O)O)C(=O)N[C@@](C)(Cc1ccc(O)cc1)C(=O)N[C@@H](CC(C)C)C(=O)N[C@H](C(=O)N[C@@H](CCCCNC(=O)COCCOCCNC(=O)CC[C@H](NC(=O)CCCCCCCCCOc1ccc(C(=O)O)cc1)C(=O)O)C(=O)NCC(=O)NCC(=O)N1CCC[C@H]1C(=O)N[C@@H](CO)C(=O)N[C@@H](CO)C(=O)NCC(=O)N[C@@H](C)C(=O)N1CCC[C@H]1C(=O)N1CCC[C@H]1C(=O)N1CCC[C@H]1C(=O)N[C@@H](CO)C(N)=O)[C@@H](C)CC)[C@@H](C)CC [Example 381] | 1.1 nM | 90.3% |  | 0.0784 nM |  | > 9950 nM | > 9950 nM |  | 105% |  |
| CC[C@H](C)[C@H](NC(=O)[C@H](CCCN)NC(=O)[C@H](CC(=O)O)NC(=O)[C@H](CC(C)C)NC(=O)[C@](C)(CC(C)C)NC(=O)[C@@H](NC(=O)C(C)(C)NC(=O)[C@@H](NC(=O)[C@H](CC(=O)O)NC(=O)[C@H](CO)NC(=O)[C@@H](NC(=O)[C@](C)(Cc1ccccc1F)NC(=O)[C@@H](NC(=O)CNC(=O)[C@H](CCC(=O)O)NC(=O)C(C)(C)NC(=O)[C@@H](N)Cc1ccc(O)cc1)[C@@H](C)O)[C@@H](C)O)C(C)C)[C@@H](C)CC)C(=O)N[C@@H](C)C(=O)N[C@@H](CCC(N)=O)C(=O)NC(C)(C)C(=O)N[C@@H](CCCCNC(=O)COCCOCCNC(=O)CC[C@H](NC(=O)CCCCCCCCCOc1ccc(C(=O)O)cc1)C(=O)O)C(=O)N[C@@H](Cc1ccccc1)C(=O)N[C@H](C(=O)N[C@H](CCC(=O)O)C(=O)N[C@@](C)(Cc1ccc(O)cc1)C(=O)N[C@@H](CC(C)C)C(=O)N[C@H](C(=O)N[C@@H](CCCCNC(=O)COCCOCCNC(=O)CC[C@H](NC(=O)CCCCCCCCCOc1ccc(C(=O)O)cc1)C(=O)O)C(=O)NCC(=O)NCC(=O)N1CCC[C@H]1C(=O)N[C@@H](CO)C(=O)N[C@@H](CO)C(=O)NCC(=O)N[C@@H](C)C(=O)N1CCC[C@H]1C(=O)N1CCC[C@H]1C(=O)N1CCC[C@H]1C(=O)N[C@@H](CO)C(N)=O)[C@@H](C)CC)[C@@H](C)CC [Example 382] | 0.619 nM | 87.2% | 97.6% | 0.0302 nM |  | > 9950 nM | > 9950 nM | 118% |  |  |
| CC[C@H](C)[C@H](NC(=O)[C@H](CCCN)NC(=O)[C@H](CC(=O)O)NC(=O)[C@H](CC(C)C)NC(=O)[C@](C)(CC(C)C)NC(=O)[C@@H](NC(=O)C(C)(C)NC(=O)[C@@H](NC(=O)[C@H](CC(=O)O)NC(=O)[C@H](CO)NC(=O)[C@@H](NC(=O)[C@](C)(Cc1ccccc1F)NC(=O)[C@@H](NC(=O)CNC(=O)[C@H](CCC(=O)O)NC(=O)C(C)(C)NC(=O)[C@@H](N)Cc1ccc(O)cc1)[C@@H](C)O)[C@@H](C)O)C(C)C)[C@@H](C)CC)C(=O)N[C@@H](C)C(=O)N[C@@H](CCC(N)=O)C(=O)NC(C)(C)C(=O)N[C@@H](CCCCNC(=O)COCCOCCNC(=O)COCCOCCNC(=O)CC[C@H](NC(=O)CCCCCCCCCOc1ccc(C(=O)O)cc1)C(=O)O)C(=O)N[C@@H](Cc1ccccc1)C(=O)N[C@H](C(=O)N[C@H](CCC(=O)O)C(=O)N[C@@](C)(Cc1ccc(O)cc1)C(=O)N[C@@H](CC(C)C)C(=O)N[C@H](C(=O)N[C@@H](CCC(=O)O)C(=O)NCC(=O)NCC(=O)N1CCC[C@H]1C(=O)N[C@@H](CO)C(=O)N[C@@H](CO)C(=O)NCC(=O)N[C@@H](C)C(=O)N1CCC[C@H]1C(=O)N1CCC[C@H]1C(=O)N1CCC[C@H]1C(=O)N[C@@H](CO)C(=O)N[C@@H](CCCCNC(=O)COCCOCCNC(=O)COCCOCCNC(=O)CC[C@H](NC(=O)CCCCCCCCCOc1ccc(C(=O)O)cc1)C(=O)O)C(N)=O)[C@@H](C)CC)[C@@H](C)CC [Example 383] (H-Y[Aib]EGT[αMePhe(2-F)]TSDV[Aib]I[αMeL]LD[Orn]IAQ[Aib]K([AEEA-AEEA-γGlu-Decanoyl(10-(4-HOOC-PhO))])FI[dE][αMeY]LIEGGPSSGAPPPSK([AEEA-AEEA-γGlu-Decanoyl(10-(4-HOOC-PhO))])-NH2) | 0.306 nM | 82.8% | 100% | 0.0147 nM |  | > 9950 nM | > 9950 nM |  | 105% |  |
